According to patent EP4755890A1, “OXO-TRICYCLIC DERIVATIVE AND PHARMACEUTICAL USE THEREOF” (Haisco Pharmaceutical Group Co., Ltd., priority 2023, dated 2025):
pIC50: −log10 of the molar value.

Columns and labels:
[1] = system: SW48 Xenograft Tumor; assay: In vivo efficacy assay of SW48 xenograft tumor; design: species or system BALB/c nude mice; conditions: after 14 days of administration
Method: The culture conditions for SW48 cells were as follows: Leibovitz L15 + 10% FBS + 1% penicillin-streptomycin, and the cells were cultured in an incubator without CO2 at 37°C. When the cell confluency reached 80%-90% and the cell number met the requirement, the cells were harvested and counted. 0.1 mL of SW48 cell suspension (5 × 10^6 cells) was subcutaneously inoculated into the right posterior back of female BALB/c nude mice. When the average tumor volume reached 100-150 mm^3, the mice were grouped according to their tumor volumes, with 10 animals per group. The test compounds at different dosages were administered to the animals in each group via intragastric administration once daily. The day of grouping was recorded as D0. During the experiment, the body weights and tumor diameters of the animals were measured three times a week. The tumor volume was calculated according to the formula V = 0.5 × a × b^2, where a and b represent the long diameter and short diameter of the tumor, respectively. The tumor inhibitory efficacy of the test compounds was evaluated by tumor growth inhibition rate (TGI%). [formula]

[2] = system: HCT-116 cells; assay: HCT-116 cell proliferation inhibition assay (CellTiter-Glo); format: cell-based; conditions: Homo sapiens, 96 h, 4 days, read-out: Inhibitory activity against HCT-116 cell proliferation IC50
Method: The culture conditions for HCT-116 cells were as follows: RPMI-1640 + 10% FBS + 1% penicillin-streptomycin, and the cells were cultured in an incubator with 5% CO2 at 37°C. On the first day, the HCT-116 cells in the exponential growth phase were collected and plated in 96-well cell culture plates at a density of 800 cells/well (180 µL/well). The plates were cultured overnight in an incubator with 5% CO2 at 37°C. T0 wells were plated simultaneously during the plating process. The next day, 20 µL of compounds at different concentrations were added to each well (nine compound concentration gradients, one DMSO well, and one blank well; each compound concentration was plated in triplicate), and the final concentration of DMSO in each well was 0.1%. The plates were cultured in an incubator with 5% CO2 at 37°C for 4 days. On the same day of compound addition, the T0 plate was detected using the CellTiter-Glo Kit, and the detected value was recorded as RLU0. After the culture was completed, 100 µL of detection solution (Cell Viability Assay, Promega) was added to each well. […] The chemiluminescence reading was read using a BMG microplate reader (PHERAstar FSX). […] In the formula, RLUcompound is the readout of the drug-treated group, RLUcontrol is the average value of the compound vehicle control group, and RLUBlank is the average value of the blank control group. […]

[3] = Beagle dog pharmacokinetic assay; format: in vivo, Beagle dogs; conditions: po; Beagle dog plasma, i.g. (3 mg/kg)
Method: 7.1. Experimental animals: Male Beagle dogs, about 8-13 kg, 6 Beagle dogs/compound.
7.2. Experimental method: On the day of the experiment, the Beagle dogs were randomly grouped according to their body weights. The animals were fasted with water available for 14-18 h one day before the administration, and were fed 4 h after the administration. The animals were administered according to Table 6. Table 6. Administration information
Note: Vehicle for intravenous administration: 5% DMA + 5% Solutol + 90% Saline; and vehicle for intragastric administration: 5% DMSO + 95% (20% SBE-β-CD in Saline) (DMA: dimethylacetamide; Solutol: polyethylene glycol-15-hydroxystearate; Saline: normal saline; and MC: methylcellulose)
Before and after the administration, 1 ml of blood was taken from the jugular veins or limb veins and placed in an EDTAK2 centrifuge tube. The tube was centrifuged at 5000 rpm at 4°C for 10 min, and plasma was collected. The blood collection time points for the intravenous administration group and intragastric administration group were as follows: 0, 5 min, 15 min, 30 min, 1 h, 2 h, 4 h, 6 h, 8 h, 10 h, 12 h, 24 h, and 48 h. Before analysis and detection, all samples were stored at -80°C. The samples were analyzed quantitatively by LC-MS/MS. Table 7. Pharmacokinetic parameters of test compounds in Beagle dog plasma

[4] = molecular target: T1, WRN protein (AA N517-P1238, ICE) (Homo sapiens, UniProt Q14191); assay: Assay for ATPase activity of WRN helicase (ADP-Glo); format: biochemical; conditions: inhibition of ATPase activity of WRN helicase; 0.3 nM WRN, 0.2 nM DNA substrate, 10 µM ATP
T1 construct: WRN protein (AA N517-P1238, ICE); purchased ICE
T1 sequence (Q14191 517-1238): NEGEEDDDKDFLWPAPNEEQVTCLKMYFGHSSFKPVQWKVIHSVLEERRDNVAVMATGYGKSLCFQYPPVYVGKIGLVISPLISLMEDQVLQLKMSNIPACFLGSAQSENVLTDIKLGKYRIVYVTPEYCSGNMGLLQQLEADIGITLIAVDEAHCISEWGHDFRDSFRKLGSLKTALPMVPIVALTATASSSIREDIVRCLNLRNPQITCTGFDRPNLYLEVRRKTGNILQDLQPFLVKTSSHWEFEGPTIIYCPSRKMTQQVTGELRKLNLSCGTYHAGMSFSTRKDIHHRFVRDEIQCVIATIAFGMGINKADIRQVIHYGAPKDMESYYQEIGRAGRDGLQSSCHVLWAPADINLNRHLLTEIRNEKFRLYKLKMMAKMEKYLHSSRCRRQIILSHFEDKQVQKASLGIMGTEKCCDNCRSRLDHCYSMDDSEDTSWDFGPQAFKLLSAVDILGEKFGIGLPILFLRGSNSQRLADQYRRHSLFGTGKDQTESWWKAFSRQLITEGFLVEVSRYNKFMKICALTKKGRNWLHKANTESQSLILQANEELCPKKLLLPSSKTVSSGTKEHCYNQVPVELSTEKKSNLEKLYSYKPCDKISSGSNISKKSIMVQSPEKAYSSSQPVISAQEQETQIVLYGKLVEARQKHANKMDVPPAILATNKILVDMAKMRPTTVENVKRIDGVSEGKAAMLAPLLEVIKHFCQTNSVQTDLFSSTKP
Method: The assay buffer working solution was as follows: 30 mM Tris pH 7.5 + 0.02% BSA + 2 mM MgCl2 + 50 mM NaCl + 0.1% Pluronic® F127 + 1 mM DTT. WRN protein (AA N517-P1238, ICE) was obtained through protein expression and purification in vitro. A single-stranded DNA substrate ([…]) was synthesized in vitro. 1 µL each of compounds at different concentrations, the WRN protein, and the DNA substrate, together with 2 µL of ATP, were added to a 384-well white plate. The working concentrations of the WRN protein, the DNA substrate, and the ATP were 0.3 nM, 0.2 nM, and 10 µM, respectively. The plate was incubated at room temperature for 20 minutes. After the incubation was completed, the detection was performed in accordance with the instructions of the ADP-Glo Assay Kit (Promega), and the chemiluminescence value was read.
The inhibition rate was calculated according to Formula 1, where RLUsample is the readout of the compound well, RLUmax is the readout of the DMSO control well, and RLUmin is the readout of the control well without the WRN protein. Curve fitting was performed via a four-parameter logistic model (log(inhibitor) vs. response -- Variable slope) using GraphPad Prism software, and the IC50 value was calculated. Inhibition% = (1−(RLUsample−RLUmin)/(RLUmax−RLUmin)) × 100% [formula] Table 1. Results of inhibitory activity of test compounds against ATPase activity of WRN helicase

Row | Compound | growth of SW48 tumors ([1]; intragastric once daily) | tumor shrinkage ([1]; dosage group of 15 mg/kg) | tumor shrinkage ([1]; dosage group of 50 mg/kg) | pIC50 [2] | AUC(0-t) [3] [ng·h/mL] | pIC50 [4]
1 | Cc1ncnc(C(=O)N2CCN(c3c4n(c5nc(C6=CCOCC6)nn5c3=O)[C@@H](C(=O)Nc3ccc(C(F)(F)F)cc3Cl)CCC4)CC2)c1O [Compound 1-B] | significantly inhibit | tumor shrinkage can be observed | tumor shrinkage can be observed | > 7.00 | 19900 | > 7.70
2 | Cc1ncnc(C(=O)N2[C@@H](C)CN(c3c4n(c5nc(C6=CCOCC6)nn5c3=O)[C@@H](C(=O)Nc3ccc(C(F)(F)F)cc3Cl)CCC4)C[C@@H]2C)c1O [Compound 20-A] | – | – | – | – | 19700 | –
